US11059780B2, “Substituted pyrrolidine compound and use thereof” (Takeda Pharmaceutical Company Limited, priority 2017, dated 2021)

Each molecule was assayed against T1, human orexin type 2 receptor (hOX2R) (Homo sapiens, UniProt O43614) (assay: Measurement of orexin type 2 receptor agonist activity (Fluo-4 calcium fluorescence, CHO cells forcibly expressing human OX2 receptor)). Settings: test compound 3 μM, DMSO = 0%, orexin A (human) 10 nM = 100%.
T1 construct: expressed in transfected cells
T1 sequence (O43614 1-444): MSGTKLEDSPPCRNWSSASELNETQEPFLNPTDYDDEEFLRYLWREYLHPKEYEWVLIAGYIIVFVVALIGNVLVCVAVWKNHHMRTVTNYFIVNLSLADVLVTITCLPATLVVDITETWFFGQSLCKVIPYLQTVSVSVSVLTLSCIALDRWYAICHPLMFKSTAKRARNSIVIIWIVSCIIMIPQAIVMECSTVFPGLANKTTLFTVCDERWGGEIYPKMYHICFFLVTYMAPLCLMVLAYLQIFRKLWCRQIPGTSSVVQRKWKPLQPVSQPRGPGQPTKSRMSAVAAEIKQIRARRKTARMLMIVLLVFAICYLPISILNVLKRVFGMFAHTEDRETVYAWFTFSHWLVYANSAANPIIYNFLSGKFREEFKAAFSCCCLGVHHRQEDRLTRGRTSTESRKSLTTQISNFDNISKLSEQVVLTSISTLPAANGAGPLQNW
Type: cell-based
In short: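 CHO-dhfr cells stably expressing human OX2 receptor, loaded with Fluo-4 AM in HBSS/HEPES/BSA with probenecid, then given test compound at 3 μM. Calcium fluorescence recorded for about 2 min 40 s by FDSS; activity normalized to DMSO (0%) and 10 nM human orexin A (100%).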
With `COc1cccc(C)c1C(=O)N1CC(OC)C(Oc2cccc(CS(=O)(=O)N3CCCC3c3ccc(C)nc3C)c2)C1` (stereo not drawn) [Example 124, trans-3-(3-(((2-(2,6-dimethylpyridin-3-yl)pyrrolidin-1-yl)sulfonyl)methyl)phenoxy)-4-methoxypyrrolidin-1-yl)(2-methoxy-6-methylphenyl)methanone] the “OX2R agonist activity (3 μM, %)” value was 99%. For `CCc1ccccc1C(=O)N1C[C@@H](OC)[C@H](Oc2cccc(NS(=O)(=O)N3CC4CC4C3)c2)C1` (stereo partly drawn) [Example 129, N-(3-(((3R,4R)-1-(2-ethylbenzoyl)-4-methoxypyrrolidin-3-yl)oxy)phenyl)-3-azabicyclo[3.1.0]hexane-3-sulfonamide], the “OX2R agonist activity (3 μM, %)” value was 96%. In the case of `CCc1cccc(C)c1C(=O)N1C[C@@H](OC)[C@H](Oc2cccc(NS(=O)(=O)N3CC4CC4C3)c2)C1` (stereo partly drawn) [Example 134, N-(3-(((3R,4R)-1-(2-ethyl-6-methylbenzoyl)-4-methoxypyrrolidin-3-yl)oxy)phenyl)-3-azabicyclo[3.1.0]hexane-3-sulfonamide], the “OX2R agonist activity (3 μM, %)” value is reported as 108%. For `COc1cccc(C)c1C(=O)N1C[C@@H](OC)[C@H](Oc2cccc(NS(=O)(=O)N(C)C)c2)C1` [Example 135, N′-(3-(((3R,4R)-4-methoxy-1-(2-methoxy-6-methylbenzoyl)pyrrolidin-3-yl)oxy)phenyl)-N,N-dimethylsulfuric diamide], the “OX2R agonist activity (3 μM, %)” value was 90%. With `CO[C@@H]1CN(C(=O)c2cc(C)ccc2C)C[C@H]1Oc1cccc(C(C)S(=O)(=O)N2CCC[C@H]2c2ccccn2)c1` (stereo partly drawn) [Example 137, (2,5-dimethylphenyl)((3R,4R)-3-methoxy-4-(3-(1-(((2S)-2-(pyridin-2-yl)pyrrolidin-1-yl)sulfonyl)ethyl)phenoxy)pyrrolidin-1-yl)methanone] the “OX2R agonist activity (3 μM, %)” value was 88%. In the case of `CO[C@@H]1CN(C(=O)Oc2ccccc2C)C[C@H]1Oc1cccc(NS(=O)(=O)N2CC3CC3C2)c1` (stereo partly drawn) [Example 138, 2-methylphenyl(3R,4R)-3-(3-((3-azabicyclo[3.1.0]hex-3-ylsulfonyl)amino)phenoxy)-4-methoxypyrrolidine-1-carboxylate], the “OX2R agonist activity (3 μM, %)” value is reported as 38%. In the case of `CCc1cccc(C)c1C(=O)N1C[C@@H](OC)[C@H](Oc2cccc(CS(=O)(=O)N(C)C3CCOCC3)c2)C1` [Example 146, 1-(3-(((3R,4R)-1-(2-ethyl-6-methylbenzoyl)-4-methoxypyrrolidin-3-yl)oxy)phenyl)-N-methyl-N-(tetrahydro-2H-pyran-4-yl)methanesulfonamide], the “OX2R agonist activity (3 μM, %)” value is reported as 105%. In the case of `CO[C@@H]1CN(C(=O)Oc2c(C)cccc2C)C[C@H]1Oc1cccc(NS(=O)(=O)N2CC3CC3C2)c1` (stereo partly drawn) [Example 148, 2,6-dimethylphenyl(3R,4R)-3-(3-((3-azabicyclo[3.1.0]hex-3-ylsulfonyl)amino)phenoxy)-4-methoxypyrrolidine-1-carboxylate], the “OX2R agonist activity (3 μM, %)” value is reported as 76%. For `CCc1cccc(C)c1C(=O)N1C[C@@H](OC)[C@H](Oc2cccc(CS(=O)(=O)N(C)[C@@H]3C[C@H]4CC[C@@H](C3)O4)c2)C1` [Example 149, 1-(3-(((3R,4R)-1-(2-ethyl-6-methylbenzoyl)-4-methoxypyrrolidin-3-yl)oxy)phenyl)-N-methyl-N-((3-exo)-8-oxabicyclo[3.2.1]oct-3-yl)methanesulfonamide], the “OX2R agonist activity (3 μM, %)” value was 110%. For `COc1ccccc1OC(=O)N1C[C@@H](OC)[C@H](Oc2cccc(NS(=O)(=O)N3CC4CC4C3)c2)C1` (stereo partly drawn) [Example 157, 2-methoxyphenyl(3R,4R)-3-(3-((3-azabicyclo[3.1.0]hex-3-ylsulfonyl)amino)phenoxy)-4-methoxypyrrolidine-1-carboxylate], the “OX2R agonist activity (3 μM, %)” value was 83%. For `CCc1cccc(C)c1C(=O)N1C[C@@H](OC)[C@H](Oc2cccc(CS(=O)(=O)N(CC)C3CCOCC3)c2)C1` [Example 158, N-ethyl-1-(3-(((3R,4R)-1-(2-ethyl-6-methylbenzoyl)-4-methoxypyrrolidin-3-yl)oxy)phenyl)-N-(tetrahydro-2H-pyran-4-yl)methanesulfonamide], the “OX2R agonist activity (3 μM, %)” value was 83%. `CCc1cccc(C)c1C(=O)N1CC[C@H](Oc2cccc(CS(=O)(=O)N(C)C3CCOCC3)c2)C1` [Example 159, 1-(3-(((3S)-1-(2-ethyl-6-methylbenzoyl)pyrrolidin-3-yl)oxy)phenyl)-N-methyl-N-(tetrahydro-2H-pyran-4-yl)methansulfo] was tested, and the “OX2R agonist activity (3 μM, %)” value was 89%.
